Test results as given in BindingDB's records for doi:10.1016/j.chembiol.2007.09.006 (University of Virginia At Charlottesville, 2007).

Molecular target: T1, Core-binding factor subunit beta (Homo sapiens, UniProt Q13951)
T1 sequence (Q13951 whole entry): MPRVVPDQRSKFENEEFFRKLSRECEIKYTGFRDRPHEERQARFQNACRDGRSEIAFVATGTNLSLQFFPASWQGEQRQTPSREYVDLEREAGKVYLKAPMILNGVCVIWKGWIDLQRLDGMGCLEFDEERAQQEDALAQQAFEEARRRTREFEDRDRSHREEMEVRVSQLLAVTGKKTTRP
Test: FRET Assay
Details: pH 7.5; 23 °C
Protocol: Protein concentrations were determined by UV absorption at 433 nm for Cerulean-Runt and 513 nm for Venus-CBFbeta. […] Mean values of IC50 originating from two independent measurements performed in duplicate together with the standard deviations are reported.

| IC50 | Compound |
| --- | --- |
| 12 µM | Nc1nc(-c2cccc(Cl)c2)cs1 [thiazol-2-amine, 9] |
| 9 µM | Nc1nc(-c2ccc(C(F)(F)F)cc2)cs1 [thiazol-2-amine, 5] |
| 18.5 µM | COc1ccc(-c2csc(N)n2)cc1 [thiazol-2-amine, 6] |
| 1.1 µM | Nc1nc(-c2ccccc2Cl)cs1 [thiazol-2-amine, 14] |
| 110 µM | Cc1cccc(-c2csc(N)n2)c1 [thiazol-2-amine, 10] |
| 61 µM | COc1cccc(-c2csc(N)n2)c1 [thiazol-2-amine, 11] |

Second part, the compound before the results:

| Compound | IC50 |
| --- | --- |
| CCc1sc(N)nc1-c1cccc(C)c1 [thiazol-2-amine, 19] | 66 µM |
| CCCc1sc(N)nc1-c1ccc(OC)cc1 [thiazol-2-amine, 18] | 23.5 µM |
| Cc1ccccc1-c1csc(N)n1 [thiazol-2-amine, 13] | 5 µM |
| COc1ccc(-c2csc(N)n2)cc1OC [thiazol-2-amine, 7] | 40.5 µM |
| CCc1sc(N)nc1-c1ccccc1OC [thiazol-2-amine, 20] | 17 µM |
| CCc1sc(N)nc1-c1ccc(OC)cc1 [thiazol-2-amine, 17] | 3.2 µM |
| CCOc1ccc(-c2nc(N)sc2CC)cc1 [thiazol-2-amine, 21] | > 500 µM |
| Nc1nc(-c2ccc(Cl)cc2Cl)cs1 [thiazol-2-amine, 16] | 49 µM |
| Nc1nc(-c2ccc3c(c2)OCO3)cs1 [thiazol-2-amine, 8] | 9 µM |
